Earlier results in patent US20100209363A1, “PERSONAL CLEANSING COMPOSITION INCLUDING A STRUCTURED SURFACTANT SYSTEM AND A SUN PROTECTION FACTOR COMPOSITION” (The Dial Corporation, priority 2009, published 2010).

Conditions: in capric triglyceride

Row | SMILES | concentration up to which miscible with capric triglyceride | miscibility with capric triglyceride
1 | COc1ccc(C(=O)CC(=O)c2ccc(C(C)(C)C)cc2)cc1 [avobenzone, 4-tert-butyl-4′-methoxydibenzoylmethane] | up to 16 wt. % | miscible
2 | CCCCC(CC)COC(=O)C(C#N)=C(c1ccccc1)c1ccccc1 (stereo not drawn) [octocrylene, 2-ethylhexyl 2-cyano-3,3-diphenylacrylate] | – | miscible
